From PMC12216609, “Inhibitors of eIF1A-ribosome interaction unveil uORF-dependent regulation of translation initiation and antitumor and antiviral effects” (The EMBO Journal, 2025)
Several values for one entry are separate records, joined by “and”; a condition that tells them apart may be missing. Identical values can stand only once. Like-named read-outs stand apart in the source and are kept apart here.

Experiments:
eIF1A without CTT = molecular target: T1, eIF1A without CTT (Homo sapiens, UniProt P47813); type: binding; conditions: for fluorescence ratio, eIF1A Δ CTT: background-corrected, relative to DMSO or lowest 1Ai concentration, replicate columns
T1 construct: His-bdSUMO (cleaved yes); made in house; host or cells: E. coli (BL-21)

eIF1A without NTT = molecular target: T2, eIF1A without NTT (Homo sapiens, UniProt P47813); experiment: Fluorescence binding assay with NTT-truncated eIF1A; conditions: for fluorescence ratio, eIF1A Δ NTT: background-corrected, relative to DMSO or lowest 1Ai concentration, replicate columns
T2 construct: His-bdSUMO (cleaved yes); made in house; host or cells: E. coli (BL-21)

RPS10 = molecular target: T3, RPS10 (Homo sapiens, UniProt P46783); type: binding
T3 construct: made in house; host or cells: E. coli BL-21

[1] = test system: cap-proximal AUG GFP reporter in HEK293T cells; type: cell-based; conditions: GFP WB densitometry; 20 µM overnight; dmso 0.965946;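 note: ratio of upstream to downstream AUG initiation products on GFP Western blot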
[2] = eIF1A Δ CTT, from the titration data, read-out: IC50 (eIF1A Δ CTT titration block)
[3] = summary table, fluorescence binding assay, read-out: IC50 concentration (µM), CTT truncation
[4] = eIF1A Δ NTT, from the titration data, read-out: IC50 (eIF1A Δ NTT titration block)
[5] = summary table, fluorescence binding assay, read-out: IC50 concentration (µM), NTT truncation

T2 sequence (P47813 31-144 limits assumed): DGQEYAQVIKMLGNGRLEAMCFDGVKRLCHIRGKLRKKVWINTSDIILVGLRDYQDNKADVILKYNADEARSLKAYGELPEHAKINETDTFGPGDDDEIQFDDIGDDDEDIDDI
T1 sequence (P47813 1-114 limits assumed): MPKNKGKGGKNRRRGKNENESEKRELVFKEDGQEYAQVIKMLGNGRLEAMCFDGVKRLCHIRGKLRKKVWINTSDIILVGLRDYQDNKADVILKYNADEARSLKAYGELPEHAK

CCOc1cc(C(=O)Nc2ccc(Cl)c(-c3nc4ccccc4[nH]3)c2)cc(OCC)c1OCC [1Ai-5677]
fluorescence ratio, eIF1A Δ CTT (eIF1A without CTT; 1Ai conc. 0.25 uM): 0.9518 and 1.125
fluorescence ratio, eIF1A Δ CTT (eIF1A without CTT; 1Ai conc. 0.5 uM): 0.9965 and 1.042
fluorescence ratio, eIF1A Δ CTT (eIF1A without CTT; 1Ai conc. 1 uM): 1.031 and 1.16
fluorescence ratio, eIF1A Δ CTT (eIF1A without CTT; 1Ai conc. 2 uM): 1.066 and 1.079
fluorescence ratio, eIF1A Δ CTT (eIF1A without CTT; 1Ai conc. 4 uM): 1.073 and 1.131
fluorescence ratio, eIF1A Δ CTT (eIF1A without CTT; 1Ai conc. 8 uM): 1.007 and 1.089
fluorescence ratio, eIF1A Δ CTT (eIF1A without CTT; 1Ai conc. 16 uM): 1.119 and 1.152
fluorescence ratio, eIF1A Δ CTT (eIF1A without CTT; 1Ai conc. 32 uM): 1.196 and 1.27
fluorescence ratio, eIF1A Δ CTT (eIF1A without CTT; 1Ai conc. 64 uM): 1.276 and 1.31
fluorescence ratio, eIF1A Δ CTT (eIF1A without CTT; 1Ai conc. 256 uM): 1.365 and 1.556
IC50 (eIF1A without CTT; [2]): 79.9 µM
IC50 (eIF1A without CTT; [3]): 79.9 µM
binding to NTT-truncated eIF1A (eIF1A without NTT): significantly decreased
fluorescence ratio, eIF1A Δ NTT (eIF1A without NTT; 1Ai conc. 0.25 uM): 1
fluorescence ratio, eIF1A Δ NTT (eIF1A without NTT; 1Ai conc. 0.5 uM): 1 and 0.9156
fluorescence ratio, eIF1A Δ NTT (eIF1A without NTT; 1Ai conc. 1 uM): 1.054 and 0.8819
fluorescence ratio, eIF1A Δ NTT (eIF1A without NTT; 1Ai conc. 2 uM): 0.997 and 1.025
fluorescence ratio, eIF1A Δ NTT (eIF1A without NTT; 1Ai conc. 4 uM): 0.8973 and 1.017
fluorescence ratio, eIF1A Δ NTT (eIF1A without NTT; 1Ai conc. 8 uM): 0.994 and 0.865
fluorescence ratio, eIF1A Δ NTT (eIF1A without NTT; 1Ai conc. 16 uM): 1.091 and 0.9072
fluorescence ratio, eIF1A Δ NTT (eIF1A without NTT; 1Ai conc. 32 uM): 1.205 and 0.9494
fluorescence ratio, eIF1A Δ NTT (eIF1A without NTT; 1Ai conc. 64 uM): 1.39 and 0.8945
fluorescence ratio, eIF1A Δ NTT (eIF1A without NTT; 1Ai conc. 256 uM): 1.882 and 1.228
IC50 (eIF1A without NTT; [4]): 109 µM
IC50 (eIF1A without NTT; [5]): 109 µM
RPS10 fluorescence ratio to control (RPS10; 1Ai conc. 0.25 uM): 1.185
RPS10 fluorescence ratio to control (RPS10; 1Ai conc. 0.5 uM): 1.207
RPS10 fluorescence ratio to control (RPS10; 1Ai conc. 1 uM): 1.132
RPS10 fluorescence ratio to control (RPS10; 1Ai conc. 2 uM): 1.142
RPS10 fluorescence ratio to control (RPS10; 1Ai conc. 4 uM): 1.154
RPS10 fluorescence ratio to control (RPS10; 1Ai conc. 8 uM): 1.116
RPS10 fluorescence ratio to control (RPS10; 1Ai conc. 16 uM): 1.16
RPS10 fluorescence ratio to control (RPS10; 1Ai conc. 32 uM): 1.234
RPS10 fluorescence ratio to control (RPS10; 1Ai conc. 64 uM): 1.307
RPS10 fluorescence ratio to control (RPS10; 1Ai conc. 256 uM): 1.29
RPS10 IC50 (RPS10; fluorescence binding): No binding
IC50 concentration (µM), RPS10 (RPS10; summary table, fluorescence binding assay): No binding
US/DS ratio, average [1]: 0.4981

Cc1cc(-n2c(C)cc(-c3csc(N)n3)c2C)no1 [1Ai-6464]
fluorescence ratio, eIF1A Δ CTT (eIF1A without CTT; 1Ai conc. 0.25 uM): 0.827 and 0.948
fluorescence ratio, eIF1A Δ CTT (eIF1A without CTT; 1Ai conc. 0.5 uM): 0.8882 and 1.055
fluorescence ratio, eIF1A Δ CTT (eIF1A without CTT; 1Ai conc. 1 uM): 0.8515 and 1.0065
fluorescence ratio, eIF1A Δ CTT (eIF1A without CTT; 1Ai conc. 2 uM): 0.8637 and 0.9317
fluorescence ratio, eIF1A Δ CTT (eIF1A without CTT; 1Ai conc. 4 uM): 0.8683 and 0.9724
fluorescence ratio, eIF1A Δ CTT (eIF1A without CTT; 1Ai conc. 8 uM): 0.6692 and 0.7821
fluorescence ratio, eIF1A Δ CTT (eIF1A without CTT; 1Ai conc. 16 uM): 0.7305 and 0.6862
fluorescence ratio, eIF1A Δ CTT (eIF1A without CTT; 1Ai conc. 32 uM): 0.608 and 0.5594
fluorescence ratio, eIF1A Δ CTT (eIF1A without CTT; 1Ai conc. 64 uM): 0.4364 and 0.4829
fluorescence ratio, eIF1A Δ CTT (eIF1A without CTT; 1Ai conc. 256 uM): 0.1547 and 0.1772
IC50 (eIF1A without CTT; [2]): 35.4 µM
IC50 (eIF1A without CTT; [3]): 35.4 µM
fluorescence ratio, eIF1A Δ NTT (eIF1A without NTT; 1Ai conc. 0.25 uM): 0.925 and 0.9309
fluorescence ratio, eIF1A Δ NTT (eIF1A without NTT; 1Ai conc. 0.5 uM): 1.072 and 0.9557
fluorescence ratio, eIF1A Δ NTT (eIF1A without NTT; 1Ai conc. 1 uM): 1.214 and 0.9982
fluorescence ratio, eIF1A Δ NTT (eIF1A without NTT; 1Ai conc. 2 uM): 1.067 and 1.004
fluorescence ratio, eIF1A Δ NTT (eIF1A without NTT; 1Ai conc. 4 uM): 1.128 and 0.9504
fluorescence ratio, eIF1A Δ NTT (eIF1A without NTT; 1Ai conc. 8 uM): 1.103 and 0.7642
fluorescence ratio, eIF1A Δ NTT (eIF1A without NTT; 1Ai conc. 16 uM): 0.8611 and 0.7181
fluorescence ratio, eIF1A Δ NTT (eIF1A without NTT; 1Ai conc. 32 uM): 0.7861 and 0.6206
fluorescence ratio, eIF1A Δ NTT (eIF1A without NTT; 1Ai conc. 64 uM): 0.6389 and 0.5018
fluorescence ratio, eIF1A Δ NTT (eIF1A without NTT; 1Ai conc. 256 uM): 0.4333 and 0.2642
IC50 (eIF1A without NTT; [4]): 37 µM
IC50 (eIF1A without NTT; [5]): 37 µM
RPS10 fluorescence ratio to control (RPS10; 1Ai conc. 0.25 uM): 0.9293
RPS10 fluorescence ratio to control (RPS10; 1Ai conc. 0.5 uM): 0.9332
RPS10 fluorescence ratio to control (RPS10; 1Ai conc. 1 uM): 0.9643
RPS10 fluorescence ratio to control (RPS10; 1Ai conc. 2 uM): 0.9061
RPS10 fluorescence ratio to control (RPS10; 1Ai conc. 4 uM): 0.8558
RPS10 fluorescence ratio to control (RPS10; 1Ai conc. 8 uM): 0.7733
RPS10 fluorescence ratio to control (RPS10; 1Ai conc. 16 uM): 0.6954
RPS10 fluorescence ratio to control (RPS10; 1Ai conc. 32 uM): 0.5591
RPS10 fluorescence ratio to control (RPS10; 1Ai conc. 64 uM): 0.4769
RPS10 fluorescence ratio to control (RPS10; 1Ai conc. 256 uM): 0.3869
IC50 (RPS10; read-out: IC50 (line under RPS10 binding data)): 6.4 µM
IC50 (RPS10; read-out: RPS10 IC50): 6.4 µM
IC50 (RPS10; summary table, fluorescence binding assay, read-out: IC50 concentration (µM), RPS10): 6.4 µM
US/DS ratio, average [1]: 0.6968
